Data reported in US9226916B2, “Pyrrolidine derivatives” (HOFFMANN-LA ROCHE INC., priority 2009, dated 2016).

target: T1, recombinant human NK3 receptor (Homo sapiens, UniProt P29371); test: [3H]SR142801 competition binding assay; conditions: not given
T1 construct: expressed in transfected cells; host or cells: HEK293 cells, transient expression; membranes
T1 sequence (P29371 1-465): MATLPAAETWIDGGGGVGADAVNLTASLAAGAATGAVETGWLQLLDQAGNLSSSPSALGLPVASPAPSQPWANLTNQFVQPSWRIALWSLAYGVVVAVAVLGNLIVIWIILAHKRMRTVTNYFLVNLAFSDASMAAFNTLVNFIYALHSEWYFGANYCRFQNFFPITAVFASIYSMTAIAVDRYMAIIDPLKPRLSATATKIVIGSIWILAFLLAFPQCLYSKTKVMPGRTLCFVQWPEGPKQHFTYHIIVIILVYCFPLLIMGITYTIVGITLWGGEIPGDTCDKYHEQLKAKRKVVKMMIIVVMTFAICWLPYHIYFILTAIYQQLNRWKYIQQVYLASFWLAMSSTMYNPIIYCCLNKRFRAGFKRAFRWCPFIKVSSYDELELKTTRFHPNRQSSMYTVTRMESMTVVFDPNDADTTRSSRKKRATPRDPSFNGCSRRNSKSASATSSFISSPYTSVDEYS

SMILES | Ki [nM]
CN(C(=O)Oc1ccc(F)cc1)[C@@H]1CN(C(=O)C2CCOC(C)(C)C2)C[C@H]1c1ccc(Cl)cc1 (stereo partly drawn) [Example 146, [(3S,4R)-4-(4-Chloro-phenyl)-1-(2,2-dimethyl-tetrahydro-pyran-4-carbonyl)-pyrrolidin-3-yl]-methyl-carbamic acid 4-fluoro-phenyl ester] | 6.8
CN(C(=O)OC1CC(F)(F)C1(F)F)[C@@H]1CN(C(=O)C2CCN(C(=O)C3(C)CC3)CC2)C[C@H]1c1ccc(Cl)cc1 (stereo partly drawn) [Example 175, {(3S,4R)-4-(4-Chloro-phenyl)-1-[1-(1-methyl-cyclopropanecarbonyl)-piperidine-4-carbonyl]-pyrrolidin-3-yl}-methyl-carbamic acid 2,2,3,3-tetrafluorocyclobutyl ester] | 36
CN(C(=O)Oc1ccc(F)cc1)[C@@H]1CN(C(=O)C2CCN(C(=O)C3(C)CC3)CC2)C[C@H]1c1ccc(F)cc1 [Example 129, {(3S,4R)-4-(4-Fluoro-phenyl)-1-[1-(1-methyl-cyclopropanecarbonyl)-piperidine-4-carbonyl]-pyrrolidin-3-yl}-methyl-carbamic acid 4-fluoro-phenyl ester] | 13.7
CC(=O)c1ccc(N2CCC(C(=O)N3C[C@@H](N(C)C(=O)Oc4ccc(F)cc4)[C@H](c4ccc(Cl)c(F)c4)C3)CC2)nc1 [Example 314, [(3S,4R)-1-(5′-Acetyl-3,4,5,6-tetrahydro-2H-[1,2′]bipyridinyl-4-carbonyl)-4-(4-chloro-3-fluoro-phenyl)-pyrrolidin-3-yl]-methyl-carbamic acid 4-fluoro-phenyl ester] | 0.6
CN(C(=O)OCCC(F)(F)C(F)(F)F)[C@H]1CN(C(=O)C2CCN(C(=O)C3(C)CC3)CC2)C[C@@H]1c1ccc(Cl)c(Cl)c1 (racemic) [Example 83, rac-{(3R,4S)-4-(3,4-Dichloro-phenyl)-1-[1-(1-methyl-cyclopropanecarbonyl)-piperidine-4-carbonyl]-pyrrolidin-3-yl}-methyl-carbamic acid 3,3,4,4,4-pentafluoro-butyl ester] | 4.2
CN(C(=O)Oc1ccc(F)cc1)[C@@H]1CN(C(=O)C2CCN(C(=O)C3CC(F)C3)CC2)C[C@H]1c1ccc(Cl)c(Cl)c1 (stereo partly drawn) [Example 267, {(3S,4R)-4-(3,4-Dichloro-phenyl)-1-[1-(3-fluoro-cyclobutanecarbonyl)-piperidine-4-carbonyl]-pyrrolidin-3-yl}-methyl-carbamic acid 4-fluoro-phenyl ester] | 0.7
CN(C(=O)Oc1ccc(F)cc1)[C@@H]1CN(C(=O)[C@H]2CC[C@H](C#N)CC2)C[C@H]1c1ccc(Cl)cc1 [Example 104, [(3S,4R)-4-(4-Chloro-phenyl)-1-(4-cyano-cyclohexanecarbonyl)-pyrrolidin-3-yl]-methyl-carbamic acid 4-fluoro-phenyl ester] | 7.4
CN(C(=O)O[C@]1(C(F)(F)F)CC[C@@H](C)CC1)[C@@H]1CN(C(=O)C2CCN(c3ccc(C#N)cn3)CC2)C[C@H]1c1ccc(Cl)cc1 [Example 240, [(3S,4R)-4-(4-Chloro-phenyl)-1-(5′-cyano-3,4,5,6-tetrahydro-2H-[1,2′]bipyridinyl-4-carbonyl)-pyrrolidin-3-yl]-methyl-carbamic acid 4-methyl-1-trifluoromethyl-cyclohexyl ester] | 22.8
CN(C(=O)OCC1CCCO1)[C@@H]1CN(C(=O)C2CCN(c3ccc(C#N)cn3)CC2)C[C@H]1c1ccc(Cl)cc1 (stereo partly drawn) [Example 232, [(3S,4R)-4-(4-Chloro-phenyl)-1-(5′-cyano-3,4,5,6-tetrahydro-2H-[1,2′]bipyridinyl-4-carbonyl)-pyrrolidin-3-yl]-methyl-carbamic acid tetrahydro-furan-2-ylmethyl ester] | 21.8
CN(C(=O)OC(c1ccc(F)cc1)C1CC1)[C@@H]1CN(C(=O)C2CCN(c3ccc(C#N)cn3)CC2)C[C@H]1c1ccc(Cl)cc1 (stereo partly drawn) [Example 239, [(3S,4R)-4-(4-Chloro-phenyl)-1-(5′-cyano-3,4,5,6-tetrahydro-2H-[1,2′]bipyridinyl-4-carbonyl)-pyrrolidin-3-yl]-methyl-carbamic acid cyclopropyl-(4-fluoro-phenyl)-methyl ester] | 61.6
CN(C(=O)Oc1ccc(F)cc1)[C@@H]1CN(C(=O)C2CCN(c3ccc(Cl)nn3)CC2)C[C@H]1c1ccc(Cl)cc1 [Example 110, {(3S,4R)-4-(4-Chloro-phenyl)-1-[1-(6-chloro-pyridazin-3-yl)-piperidine-4-carbonyl]-pyrrolidin-3-yl}-methyl-carbamic acid 4-fluoro-phenyl ester] | 0.3
CC1CC1COC(=O)N(C)[C@H]1CN(C(=O)C2CCN(C(=O)C3(C)CC3)CC2)C[C@@H]1c1ccc(Cl)c(Cl)c1 (mixture of isomers) [Example 92, rac-{(3R,4S)-4-(3,4-Dichloro-phenyl)-1-[1-(1-methyl-cyclopropanecarbonyl)-piperidine-4-carbonyl]-pyrrolidin-3-yl}-methyl-carbamic acid 2-methyl-cyclopropylmethyl ester] | 2.3
CN(C(=O)OCC1CCOC1)[C@H]1CN(C(=O)C2CCN(C(=O)C3(C)CC3)CC2)C[C@@H]1c1ccc(Cl)c(Cl)c1 (mixture of isomers) [Example 85, rac-{(3R,4S)-4-(3,4-Dichloro-phenyl)-1-[1-(1-methyl-cyclopropanecarbonyl)-piperidine-4-carbonyl]-pyrrolidin-3-yl}-methyl-carbamic acid (S)-1-(tetrahydro-furan-3-yl)methyl ester and rac-{(3R,4S)-4-(3,4-Dichloro-phenyl)-1-[1-(1-methyl-cyclopropanecarbonyl)-piperidine-4-carbonyl]-pyrrolidin-3-yl}-methyl-carbamic acid (R)-1-(tetrahydro-furan-3-yl)methyl ester] | 9.2
CN(C(=O)Oc1ccc(F)cc1)[C@@H]1CN(C(=O)C2CCN(C(=O)C3CCOCC3)CC2)C[C@H]1c1ccc(Cl)cc1 [Example 257, {(3S,4R)-4-(4-Chloro-phenyl)-1-[1-(tetrahydro-pyran-4-carbonyl)-piperidine-4-carbonyl]-pyrrolidin-3-yl}-methyl-carbamic acid 4-fluoro-phenyl ester] | 2.2
CCCOC(=O)N(C)[C@@H]1CN(C(=O)C2CCN(c3ccc(C#N)cn3)CC2)C[C@H]1c1ccc(Cl)cc1 [Example 138, [(3S,4R)-4-(4-Chloro-phenyl)-1-(5′-cyano-3,4,5,6-tetrahydro-2H-[1,2′]bipyridinyl-4-carbonyl)-pyrrolidin-3-yl]-methyl-carbamic acid propyl ester] | 37.1
Cc1ccc(N2CCC(C(=O)N3C[C@@H](N(C)C(=O)Oc4ccc(F)cc4)[C@H](c4ccc(Cl)cc4)C3)CC2)nn1 [Example 118, {(3S,4R)-4-(4-Chloro-phenyl)-1-[1-(6-methyl-pyridazin-3-yl)-piperidine-4-carbonyl]-pyrrolidin-3-yl}-methyl-carbamic acid 4-fluoro-phenyl ester] | 0.3
CN(C(=O)Oc1ccc(F)cc1)[C@@H]1CN(C(=O)C2CCN(c3ccc(F)cn3)CC2)C[C@H]1c1ccc(Cl)cc1 [Example 195, [(3S,4R)-4-(4-Chloro-phenyl)-1-(5′-fluoro-3,4,5,6-tetrahydro-2H-[1,2′]bipyridinyl-4-carbonyl)-pyrrolidin-3-yl]-methyl-carbamic acid 4-fluoro-phenyl ester] | 1.4

same assay, conditions: hNK-3 receptor affinity; membranes from HEK293 cells transiently expressing recombinant human NK3 receptor; [3H]SR142801; Cheng-Prussoff; read-out: Data Ki

Ki [nM] | SMILES
8.4 | CN(C(=O)OCC1CC1)[C@@H]1CN(C(=O)C2CCN(c3ccc(C#N)cn3)CC2)C[C@H]1c1ccc(Cl)cc1 [Example 215, [(3S,4R)-4-(4-Chloro-phenyl)-1-(5′-cyano-3,4,5,6-tetrahydro-2H-[1,2′]bipyridinyl-4-carbonyl)-pyrrolidin-3-yl]-methyl-carbamic acid cyclopropylmethyl ester]
94.2 | CN(C(=O)OCCCF)[C@@H]1CN(C(=O)C2CCN(c3ccc(C#N)cn3)CC2)C[C@H]1c1ccc(Cl)cc1 [Example 214, [(3S,4R)-4-(4-Chloro-phenyl)-1-(5′-cyano-3,4,5,6-tetrahydro-2H-[1,2′]bipyridinyl-4-carbonyl)-pyrrolidin-3-yl]-methyl-carbamic acid 3-fluoro-propyl ester]
1.2 | CN(C(=O)O[C@H]1CC[C@H](C(F)(F)F)CC1)[C@@H]1CN(C(=O)C2CCN(c3ccc(C#N)cn3)CC2)C[C@H]1c1ccc(Cl)cc1 [Example 126, [(3S,4R)-4-(4-Chloro-phenyl)-1-(5′-cyano-3,4,5,6-tetrahydro-2H-[1,2′]bipyridinyl-4-carbonyl)-pyrrolidin-3-yl]-methyl-carbamic acid 4-trifluoromethyl-cyclohexyl ester]
50.9 | CN(C(=O)O[C@H]1CC[C@H](C(F)(F)F)CC1)[C@H]1CN(C(=O)C2CCN(c3ccc(C#N)cn3)CC2)C[C@@H]1c1ccc(Cl)cc1 [Example 125, [(3R,4S)-4-(4-Chloro-phenyl)-1-(5′-cyano-3,4,5,6-tetrahydro-2H-[1,2′]bipyridinyl-4-carbonyl)-pyrrolidin-3-yl]-methyl-carbamic acid 4-trifluoromethyl-cyclohexyl ester]
70.5 | CN(C(=O)OCC1(C)CC1)[C@@H]1CN(C(=O)C2CCN(C(=O)C3(C)CC3)CC2)C[C@H]1c1ccc(Cl)c(Cl)c1 [Example 105, {(3S,4R)-4-(3,4-Dichloro-phenyl)-1-[1-(1-methyl-cyclopropanecarbonyl)-piperidine-4-carbonyl]-pyrrolidin-3-yl}-methyl-carbamic acid 1-methyl-cyclopropylmethyl ester]
